This is an account of results in US20170050945A1, “COMPOSITIONS AND METHODS FOR THE TREATMENT OF SARCOIDOSIS” (INSMED INCORPORATED, priority 2015, published 2017).

A word on the IC50: it is the point on the concentration scale where inhibition reaches its midpoint. By Emax is commonly meant the size of the effect at its maximum, as opposed to the concentration needed.

For data set [1], the target named is T1, Human Inosine 5′-Monophosphate Dehydrogenase 1 (IMPDH) (Homo sapiens, UniProt P20839).
T1 construct: purchased R&D Systems 8904DH
Nature of the data set: Inhibition of human inosine 5′-monophosphate dehydrogenase (IMPDH assay kit). Type of data set: biochemical. The text has this:
Human Inosine 5′-Monophosphate Dehydrogenase 1 (IMPDH) catalyzes the nicotinamide adenine dinucleotide (NAD)-dependent oxidation of inosine-5′-monophosphate (IMP) to xanthosine-5′-monophosphate (XMP), which is the committed step in de novo guanosine nucleotide biosynthesis. B and T lymphocytes depend on IMPDH activity to generate the guanosine nucleotide levels needed to initiate a proliferative response to mitogen or antigen.
A comparison of the ability of MPA and hexadecyl mycophenolate (mono-C16MP) to inhibit IMPDH was undertaken.
IMPDH (R&D Systems 8904DH) was incubated with mycophenolic acid (MPA) and, separately, mono-C16MP at concentrations ranging from about 0.015 to 15 μM. The IMPDH activity was determined using a BMR Service IMPDH assay kit (E-119).
Inhibition of IMPDH was calculated as a percentage of IMPDH activity in the absence of MPA.

The nature of data set [2]: Lung to plasma MPA ratio after inhaled dosing of MPS, MMF or mono-C16MP in mice. Type of data set: in vivo. The following applies: inhalation, C57BL/6 mice, 0-6 h post-dose. The procedure:
Studies to determine the lung to plasma ratio obtained by inhalation of mycophenolate sodium (MPS), mycophenolate mofetil (MMF), and hexadecyl mycophenolate (mono-C16MP) were conducted.
In each study group, C57BL/6 mice were given MPS, MMF or mono-C16MP by inhalation and the lung and plasma mycophenolic acid (MPA) concentrations were measured at t=0, 0.5, 1, 2, 4, and 6 h post-dose.
For each mouse in the study, the lung to plasma MPA ratios were calculated; the individual calculated ratios were averaged for each treatment group and the average values were plotted, shown in FIG. 6.

Data set [3] deals with rat alveolar macrophages (NR8383). As to the kind of experiment: Cytotoxicity toward rat alveolar macrophages (NR8383), CellTox green assay. Type of data set: cell-based. The following applies: NR8383 cells, any concentration tested (0.15 to about 15 μm), 20 h. The procedure: (§1) Rat alveolar macrophages (NR8383) were co-treated with 25 ng/mL lipopolysaccharide (LPS) and mycophenolate sodium at concentrations ranging from 0.15 to about 15 μm for a period of 20 h. After this period, the cell supernatants were collected for TNF measurement and the remaining macrophages were assessed for cytotoxicity. TNF concentrations were assayed using a rat TNF ELISA kit available from ThermoFisher. Cytotoxicity was determined using the CellTox green assay available from Promega.
(§2) Inhibition of TNF-α production was calculated as a percentage of LPS-stimulated TNF production in the absence of mycophenolate sodium.

Data set [4] relates to THP-1 derived human macrophages. As to the kind of experiment: Cytotoxicity toward human THP-1 derived macrophages, CellTox green assay. It counts as cell-based. The procedure:
(§3) THP-1 cells were cultured in media with 50 ng/mL phorbol myristate acetate (PMA) for 24 h and then in fresh media without PMA for an additional 24 h. […] The well plates were treated with mycophenolate sodium at concentrations ranging from 0.03 to 10 μm and incubated for a period for 4 h. After this period, LPS was added to each well plate at a concentration of 100 pg/mL and the LPS-, mycophenolate-treated well plates were incubated for 16 h. After 16 h, the cell supernatants were collected for TNF measurement and the remaining macrophages were assessed for cytotoxicity. TNF concentrations were assayed using a human TNF ELISA kit available from ThermoFisher. Cytotoxicity was determined using the CellTox green assay available from Promega.
as §2

The test system of data set [5] is LPS-stimulated TNF-α production in THP-1 derived human macrophages. As to the kind of experiment: Inhibition of LPS-stimulated TNF-α production in human THP-1 derived macrophages, TNF ELISA. It counts as cell-based. The following applies: 4 h pre-incubation, then 100 pg/mL LPS for 16 h. As to the method:
as §3, §2

Data set [6] relates to LPS-stimulated TNF-α production in rat alveolar macrophages (NR8383). As to the kind of experiment: Inhibition of LPS-stimulated TNF-α production in rat alveolar macrophages (NR8383), TNF ELISA. Type of data set: cell-based. The following applies: Macrophage, NR8383 cells, co-treated with 25 ng/mL LPS, 20 h. As to the method: as §1, §2
A general note: In an ELISA, binding on a coated surface is turned into a signal by an enzyme label.

T1 sequence (P20839 whole entry): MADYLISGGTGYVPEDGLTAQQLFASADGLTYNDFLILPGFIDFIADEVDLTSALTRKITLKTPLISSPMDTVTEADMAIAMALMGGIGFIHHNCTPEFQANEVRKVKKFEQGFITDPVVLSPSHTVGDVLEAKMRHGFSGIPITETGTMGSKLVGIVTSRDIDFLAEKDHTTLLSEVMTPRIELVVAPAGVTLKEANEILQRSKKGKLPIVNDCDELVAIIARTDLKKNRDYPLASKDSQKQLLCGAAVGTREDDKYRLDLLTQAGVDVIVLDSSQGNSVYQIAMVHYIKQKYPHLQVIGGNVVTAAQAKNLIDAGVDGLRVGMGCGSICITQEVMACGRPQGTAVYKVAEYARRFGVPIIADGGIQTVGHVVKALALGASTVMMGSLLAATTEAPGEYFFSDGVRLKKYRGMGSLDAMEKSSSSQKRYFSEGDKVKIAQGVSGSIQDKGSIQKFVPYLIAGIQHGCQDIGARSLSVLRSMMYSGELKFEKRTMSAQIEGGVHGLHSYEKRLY

As for `COc1c(C)c2c(c(O)c1C/C=C(\C)CCC(=O)O)C(=O)OC2` [MPA, (4E)-6-(4-hydroxy-6-methoxy-7-methyl-3-oxo-1,3-dihydro-2-benzofuran-5-yl)-4methylhex-4-enoic acid], the IC50 in data set [1] worked out at 140 nM.
With `CCCCCCCCCCCCCCCCOC(=O)CC/C(C)=C/Cc1c(O)c2c(c(C)c1OC)COC2=O` [mono-C16MP, hexadecyl mycophenolate], the “Lung to plasma exposure ratio of MPA compared to the ratio obtained with MPS or MMF” value in data set [2] is on record as “higher lung to plasma exposure ratio”. Besides, the “Inhibition of IMPDH” value in data set [1] (about 0.015 to 15 μM tested) is “does not inhibit IMPDH in a concentration-dependent manner”.
On to `COc1c(C)c2c(c(O)c1C/C=C(\C)CCC(=O)O)C(=O)OC2` [mycophenolate sodium], for which the Cytotoxicity entry in data set [3] is “no significant cytotoxicity”; in data set [4] (3 μM, P<0.05), 6.6%; in data set [4] (10 μM, P<0.05), 8.9%; in data set [4] (concentrations <3 μM), “no significant cytotoxicity”. Further, the Emax amounted to 67% in data set [5] and 54% in data set [6]. The values for the concentration for half-maximal inhibition (IC50) in data set [5] and in data set [6] were 1400 nM and 1500 nM, respectively.
